Patent US20100004221A1, “THIAZEPINE DERIVATIVE” (DAIICHI SANKYO COMPANY, LIMITED, priority 2006, published 2010)

Compound	melting point [°C]
CC1(CO)Cc2nnc(-c3ccc(-c4ccccc4)cc3Cl)n2CCS1 (stereo not drawn) [Example 9, [3-(3-Chlorobiphenyl-4-yl)-8-methyl-5,6,8,9-tetrahydro[1,2,4]triazolo[4,3-d][1,4]thiazepin-8-yl]methanol]	166 to 169
COc1cc(-c2ccc(F)cc2)ccc1-c1nnc2n1CCSC(C)(CO)C2 (stereo not drawn) [Example 10, [3-(4′-Fluoro-3-methoxybiphenyl-4-yl)-8-methyl-5,6,8,9-tetrahydro[1,2,4]triazolo[4,3-d][1,4]thiazepin-8-yl]methanol]	212 to 215
CC1(CO)Cc2nnc(-c3ccc(-c4cccc(Cl)c4)cc3F)n2CCS1 (stereo not drawn) [Example 11, [3-(3′-Chloro-3-fluorobiphenyl-4-yl)-8-methyl-5,6,8,9-tetrahydro[1,2,4]triazolo[4,3-d][1,4]thiazepin-8-yl]methanol]	165 to 168
CC1(CO)Cc2nnc(-c3ccc(-c4ccccc4F)cc3Cl)n2CCS1 (stereo not drawn) [Example 13, [3-(3-Chloro-2′-fluorobiphenyl-4-yl)-8-methyl-5,6,8,9-tetrahydro[1,2,4]triazolo[4,3-d][1,4]thiazepin-8-yl]methanol]	147 to 149
CC1(CO)Cc2nnc(-c3ccc(-c4ccccc4Cl)cc3Cl)n2CCS1 (stereo not drawn) [Example 14, [3-(3,2′-Dichlorobiphenyl-4-yl)-8-methyl-5,6,8,9-tetrahydro[1,2,4]triazolo[4,3-d][1,4]thiazepin-8-yl]methanol]	177 to 180
CC1(CO)Cc2nnc(-c3ccc(-c4cccc(F)c4)cc3Cl)n2CCS1 (stereo not drawn) [Example 15, [3-(3-Chloro-3′-fluorobiphenyl-4-yl)-8-methyl-5,6,8,9-tetrahydro[1,2,4]triazolo[4,3-d][1,4]thiazepin-8-yl]methanol]	206 to 209
CC1(CO)Cc2nnc(-c3ccc(-c4cccc(Cl)c4)cc3Cl)n2CCS1 (stereo not drawn) [Example 16, [3-(3,3′-Dichlorobiphenyl-4-yl)-8-methyl-5,6,8,9-tetrahydro[1,2,4]triazolo[4,3-d][1,4]thiazepin-8-yl]methanol]	173 to 176
CC1(CO)Cc2nnc(-c3ccc(-c4cccc(C(F)(F)F)c4)cc3Cl)n2CCS1 (stereo not drawn) [Example 17, [3-(3-Chloro-3′-trifluoromethylbiphenyl-4-yl)-8-methyl-5,6,8,9-tetrahydro[1,2,4]triazolo[4,3-d][1,4]thiazepin-8-yl]methanol]	195 to 198
COc1cccc(-c2ccc(-c3nnc4n3CCSC(C)(CO)C4)c(Cl)c2)c1 (stereo not drawn) [Example 18, [3-(3-Chloro-3′-methoxybiphenyl-4-yl)-8-methyl-5,6,8,9-tetrahydro[1,2,4]triazolo[4,3-d][1,4]thiazepin-8-yl]methanol]	181 to 184
CC1(CO)Cc2nnc(-c3ccc(-c4ccc(Cl)cc4)cc3Cl)n2CCS1 (stereo not drawn) [Example 19, [3-(3,4′-Dichlorobiphenyl-4-yl)-8-methyl-5,6,8,9-tetrahydro[1,2,4]triazolo[4,3-d][1,4]thiazepin-8-yl]methanol]	219 to 223
Cc1ccc(-c2ccc(-c3nnc4n3CCSC(C)(CO)C4)c(Cl)c2)cc1 (stereo not drawn) [Example 20, [3-(3-Chloro-4′-methylbiphenyl-4-yl)-8-methyl-5,6,8,9-tetrahydro[1,2,4]triazolo[4,3-d][1,4]thiazepin-8-yl]methanol]	223 to 225
COc1ccc(-c2ccc(-c3nnc4n3CCSC(C)(CO)C4)c(Cl)c2)cc1 (stereo not drawn) [Example 21, [3-(3-Chloro-4′-methoxybiphenyl-4-yl)-8-methyl-5,6,8,9-tetrahydro[1,2,4]triazolo[4,3-d][1,4]thiazepin-8-yl]methanol]	179 to 182
CC1(CO)Cc2nnc(-c3ccc(-c4ccc(F)cc4)cc3C(F)(F)F)n2CCS1 (stereo not drawn) [Example 22, {3-[4′-Fluoro-3-(trifluoromethyl)biphenyl-4-yl)-8-methyl-5,6,8,9-tetrahydro[1,2,4]triazolo[4,3-d][1,4]thiazepin-8-yl]methanol]	202 to 204
COc1cc(-c2cccc(Cl)c2)ccc1-c1nnc2n1CCSC(C)(CO)C2 (stereo not drawn) [Example 24, [3-(3′-Chloro-3-methoxybiphenyl-4-yl)-8-methyl-5,6,8,9-tetrahydro[1,2,4]triazolo[4,3-d][1,4]thiazepin-8-yl]methanol]	173 to 176
COc1cc(-c2cccc(C#N)c2)ccc1-c1nnc2n1CCSC(C)(CO)C2 (stereo not drawn) [Example 25, 4′-[8-(Hydroxymethyl)-8-methyl-5,6,8,9-tetrahydro[1,2,4]triazolo[4,3-d][1,4]thiazepin-3-yl]-3′-methoxybiphenyl-3-carbonitrile]	232 to 236
CC1(CO)Cc2nnc(-c3ccc(-c4ccc(F)c(F)c4)cc3Cl)n2CCS1 (stereo not drawn) [Example 26, [3-(3-Chloro-3′,4′-difluorobiphenyl-4-yl)-8-methyl-5,6,8,9-tetrahydro[1,2,4]triazolo[4,3-d][1,4]thiazepin-8-yl]methanol]	231 to 234
CC1(CO)Cc2nnc(-c3ccc(-c4cc(F)cc(F)c4)cc3Cl)n2CCS1 (stereo not drawn) [Example 27, [3-(3-Chloro-3′,5′-difluorobiphenyl-4-yl)-8-methyl-5,6,8,9-tetrahydro[1,2,4]triazolo[4,3-d][1,4]thiazepin-8-yl]methanol]	260 to 265

The next lines start with the values.

melting point [°C]	Compound
211 to 214	CC1(CO)Cc2nnc(-c3ccc(-c4ccc(F)cc4)cc3Cl)n2CCS1 (single isomer, unassigned; (+)) [Example 57, (+)-[3-(3-Chloro-4′-fluorobiphenyl-4-yl)-8-methyl-5,6,8,9-tetrahydro[1,2,4]triazolo[4,3-d][1,4]thiazepin-8-yl]methanol]
212 to 215	CC1(CO)Cc2nnc(-c3ccc(-c4ccc(F)cc4)cc3Cl)n2CCS1 (single isomer, unassigned; (-)) [Example 56, (−)-[3-(3-chloro-4′-fluorobiphenyl-4-yl)-8-methyl-5,6,8,9-tetrahydro[1,2,4]triazolo[4,3-d][1,4]thiazepin-8-yl]methanol]
156 to 160	CC1(CO)Cc2nnc(-c3ccc(-c4cccc(Cl)c4F)cc3Cl)n2CCS1 (stereo not drawn) [Example 28, [3-(3,3′-Dichloro-2′-fluorobiphenyl-4-yl)-8-methyl-5,6,8,9-tetrahydro[1,2,4]triazolo[4,3-d][1,4]thiazepin-8-yl]methanol]
186 to 189	CC1(CO)Cc2nnc(-c3ccc(-c4cc(Cl)ccc4F)cc3Cl)n2CCS1 (stereo not drawn) [Example 29, [3-(3,5′-Dichloro-2′-fluorobiphenyl-4-yl)-8-methyl-5,6,8,9-tetrahydro[1,2,4]triazolo[4,3-d][1,4]thiazepin-8-yl]methanol]
235 to 239	CC1(CO)Cc2nnc(-c3ccc(-c4ccc(F)c(Cl)c4)cc3Cl)n2CCS1 (stereo not drawn) [Example 30, [3-(3,3′-Dichloro-4′-fluorobiphenyl-4-yl)-8-methyl-5,6,8,9-tetrahydro[1,2,4]triazolo[4,3-d][1,4]thiazepin-8-yl]methanol]
183 to 185	COc1cc(-c2ccc(F)c(F)c2)ccc1-c1nnc2n1CCSC(C)(CO)C2 (stereo not drawn) [Example 31, [3-(3′,4′-Difluoro-3-methoxybiphenyl-4-yl)-8-methyl-5,6,8,9-tetrahydro[1,2,4]triazolo[4,3-d][1,4]thiazepin-8-yl]methanol]
192 to 195	CC1(CO)Cc2nnc(-c3cccc(-c4ccc(F)cc4)c3Cl)n2CCS1 (stereo not drawn) [Example 33, [3-(2-Chloro-4′-fluorobiphenyl-3-yl)-8-methyl-5,6,8,9-tetrahydro[1,2,4]triazolo[4,3-d][1,4]thiazepin-8-yl]methanol]
165 to 168	CC1(CO)Cc2nnc(-c3cc(-c4ccc(F)cc4)ccc3Cl)n2CCS1 (stereo not drawn) [Example 34, [3-(4-Chloro-4′-fluorobiphenyl-3-yl)-8-methyl-5,6,8,9-tetrahydro[1,2,4]triazolo[4,3-d][1,4]thiazepin-8-yl]methanol]
206 to 209	CC1(CO)Cc2nnc(-c3ccc(-c4cccnc4)cc3Cl)n2CCS1 (stereo not drawn) [Example 35, {3-[2-Chloro-4-(pyridin-3-yl)phenyl]-8-methyl-5,6,8,9-tetrahydro[1,2,4]triazolo[4,3-d][1,4]thiazepin-8-yl}methanol]
229 to 233	CC1(CO)Cc2nnc(-c3ccc(-c4ccncc4)cc3Cl)n2CCS1 (stereo not drawn) [Example 36, {3-[2-Chloro-4-(pyridin-4-yl)phenyl]-8-methyl-5,6,8,9-tetrahydro[1,2,4]triazolo[4,3-d][1,4]thiazepin-8-yl}methanol]
191 to 193	CC1(CO)Cc2nnc(-c3ccc(N4CCOCC4)cc3Cl)n2CCS1 (stereo not drawn) [Example 37, {3-[2-Chloro-4-(morpholin-4-yl)phenyl]-8-methyl-5,6,8,9-tetrahydro[1,2,4]triazolo[4,3-d][1,4]thiazepin-8-yl}methanol]
195 to 198	CC1(CO)Cc2nnc(-c3ccc(N4CCCCC4)cc3Cl)n2CCS1 (stereo not drawn) [Example 38, {3-[2-Chloro-4-(piperidin-1-yl)phenyl]-8-methyl-5,6,8,9-tetrahydro[1,2,4]triazolo[4,3-d][1,4]thiazepin-8-yl}methanol]
193 to 196	CC1(CO)Cc2nnc(-c3ccc(N4CCCC4)cc3Cl)n2CCS1 (stereo not drawn) [Example 39, {3-[2-Chloro-4-(pyrrolidin-1-yl)phenyl]-8-methyl-5,6,8,9-tetrahydro[1,2,4]triazolo[4,3-d][1,4]thiazepin-8-yl}methanol]
110 to 112	CC1(CO)Cc2nnc(-c3ccc(-n4cccc4)cc3Cl)n2CCS1 (stereo not drawn) [Example 40, {3-[2-Chloro-4-(1H-pyrrol-1-yl)phenyl]-8-methyl-5,6,8,9-tetrahydro[1,2,4]triazolo[4,3-d][1,4]thiazepin-8-yl}methanol]
138 to 140	CC1(CO)Cc2nnc(-c3ccc(Oc4ccc(F)cc4)cc3Cl)n2CCS1 (stereo not drawn) [Example 42, {3-[2-Chloro-4-(4-fluorophenoxy)phenyl]-8-methyl-5,6,8,9-tetrahydro[1,2,4]triazolo[4,3-d][1,4]thiazepin-8-yl}methanol]
117 to 120	CC1(CO)Cc2nnc(-c3cccc4c3ccn4-c3ccc(F)cc3)n2CCS1 (stereo not drawn) [Example 43, {3-[1-(4-Fluorophenyl)-1H-indol-4-yl]-8-methyl-5,6,8,9-tetrahydro[1,2,4]triazolo[4,3-d][1,4]thiazepin-8-yl}methanol]
